Active and inactive are the calls of the source.
Legend:
[1] = target: T1, Short transient receptor potential channel 4 (Mus musculus, UniProt Q9QUQ5); test: potentiation of DAMGO-evoked TRPC4 calcium signal – cell-based, HEK293 TRPC4/mu-opioid, Fluo-4 calcium, EC20 DAMGO, dose response (AID 434941); format: functional
T1 sequence (Q9QUQ5 whole entry): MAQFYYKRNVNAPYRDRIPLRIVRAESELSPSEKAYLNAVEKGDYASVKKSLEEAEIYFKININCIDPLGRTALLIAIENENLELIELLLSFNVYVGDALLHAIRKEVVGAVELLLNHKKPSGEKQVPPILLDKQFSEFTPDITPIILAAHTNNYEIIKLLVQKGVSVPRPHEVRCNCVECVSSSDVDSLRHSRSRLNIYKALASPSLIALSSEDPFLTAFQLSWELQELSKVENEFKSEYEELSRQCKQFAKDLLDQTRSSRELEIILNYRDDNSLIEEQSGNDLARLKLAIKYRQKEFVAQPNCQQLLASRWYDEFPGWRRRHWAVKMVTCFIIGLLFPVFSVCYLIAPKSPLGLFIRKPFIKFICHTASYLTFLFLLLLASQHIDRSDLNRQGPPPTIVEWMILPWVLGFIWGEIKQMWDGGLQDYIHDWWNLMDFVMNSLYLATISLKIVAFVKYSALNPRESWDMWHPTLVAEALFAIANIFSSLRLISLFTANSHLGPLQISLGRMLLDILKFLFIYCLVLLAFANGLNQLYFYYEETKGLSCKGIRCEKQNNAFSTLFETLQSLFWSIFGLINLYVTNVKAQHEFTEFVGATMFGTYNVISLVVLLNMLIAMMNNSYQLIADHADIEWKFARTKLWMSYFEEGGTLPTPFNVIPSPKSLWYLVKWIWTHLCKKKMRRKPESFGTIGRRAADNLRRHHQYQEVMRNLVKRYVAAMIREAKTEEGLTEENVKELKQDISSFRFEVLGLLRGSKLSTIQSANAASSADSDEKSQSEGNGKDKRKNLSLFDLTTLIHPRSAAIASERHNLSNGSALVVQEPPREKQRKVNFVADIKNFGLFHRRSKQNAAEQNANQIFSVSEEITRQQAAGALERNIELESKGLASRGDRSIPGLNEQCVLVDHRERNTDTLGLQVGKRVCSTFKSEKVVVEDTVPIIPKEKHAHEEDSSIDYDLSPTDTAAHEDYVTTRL

[2] = target: T2, Heat shock factor protein 1 (Mus musculus, UniProt P38532); test: decrease of HSF1-responsive luciferase luminescence – cell-based, NIH3T3, dose retest, confirmation (AID 2382); format: functional;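 note: NIH3T3 fibroblasts with HSF1-driven luciferase reporter stressed by proteasome inhibitor MG132; luminescence from HSF1-driven luciferase expression after 8 hours of MG132 stress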
T2 sequence (P38532 whole entry): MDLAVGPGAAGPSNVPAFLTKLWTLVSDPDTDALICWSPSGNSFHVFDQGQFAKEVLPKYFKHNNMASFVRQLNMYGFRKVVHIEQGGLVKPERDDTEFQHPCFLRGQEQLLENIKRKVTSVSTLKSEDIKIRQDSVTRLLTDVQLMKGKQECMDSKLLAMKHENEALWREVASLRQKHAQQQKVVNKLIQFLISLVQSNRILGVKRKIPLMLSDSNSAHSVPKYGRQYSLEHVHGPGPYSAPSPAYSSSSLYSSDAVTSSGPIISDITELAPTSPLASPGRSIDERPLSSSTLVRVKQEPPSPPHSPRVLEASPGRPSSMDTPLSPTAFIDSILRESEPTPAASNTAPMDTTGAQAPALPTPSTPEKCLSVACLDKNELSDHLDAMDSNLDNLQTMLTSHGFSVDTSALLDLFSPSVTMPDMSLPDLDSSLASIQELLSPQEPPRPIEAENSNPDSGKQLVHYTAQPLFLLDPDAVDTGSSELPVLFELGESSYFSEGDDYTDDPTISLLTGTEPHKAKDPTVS

HEK293 = test: EBV LMP1 TES2 canonical NF-kB signalling blockers – cell-based, HEK293, luciferase, cherry-pick, dose response (AID 588343); format: functional; conditions: Homo sapiens
[3] = target: T3, Zinc finger protein mex-5 (Caenorhabditis elegans, UniProt Q9XUB2); test: potency of MEX-5 RNA-binding blockers – biochemical, C. elegans, fluorescence polarization, dose response (AID 1960)
T3 sequence (Q9XUB2 whole entry): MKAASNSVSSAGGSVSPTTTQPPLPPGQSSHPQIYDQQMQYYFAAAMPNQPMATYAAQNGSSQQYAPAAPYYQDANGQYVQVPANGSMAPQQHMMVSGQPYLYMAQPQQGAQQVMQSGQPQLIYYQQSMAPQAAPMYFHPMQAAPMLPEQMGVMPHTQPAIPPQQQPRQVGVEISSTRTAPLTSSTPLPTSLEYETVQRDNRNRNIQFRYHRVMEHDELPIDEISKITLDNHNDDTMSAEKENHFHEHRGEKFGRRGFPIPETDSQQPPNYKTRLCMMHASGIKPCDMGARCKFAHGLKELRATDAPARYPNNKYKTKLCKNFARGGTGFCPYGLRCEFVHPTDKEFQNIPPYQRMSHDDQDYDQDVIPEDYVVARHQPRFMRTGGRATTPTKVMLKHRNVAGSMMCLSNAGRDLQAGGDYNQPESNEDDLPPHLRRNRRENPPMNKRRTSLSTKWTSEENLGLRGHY

HT-1080 = test: HT1080 cell viability loss – fluorescence readout (AID 620); format: functional, cell-based; conditions: Homo sapiens
HeLa = test: viability loss in HeLa cells – cell-based, 24 h, cherry-picked samples, cytotoxicity control, dose response (AID 504726); format: functional; conditions: Homo sapiens;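 note: potency for cytotoxicity as loss of luminescence signal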
[4] = target: Luciferin 4-monooxygenase (Photinus pyralis, UniProt P08659); test: Counter Screen for Luciferase-based Assay Positives. [Related pubchem assays: 620, 618, 411 ]
Chain of Luciferin 4-monooxygenase (P08659 whole entry): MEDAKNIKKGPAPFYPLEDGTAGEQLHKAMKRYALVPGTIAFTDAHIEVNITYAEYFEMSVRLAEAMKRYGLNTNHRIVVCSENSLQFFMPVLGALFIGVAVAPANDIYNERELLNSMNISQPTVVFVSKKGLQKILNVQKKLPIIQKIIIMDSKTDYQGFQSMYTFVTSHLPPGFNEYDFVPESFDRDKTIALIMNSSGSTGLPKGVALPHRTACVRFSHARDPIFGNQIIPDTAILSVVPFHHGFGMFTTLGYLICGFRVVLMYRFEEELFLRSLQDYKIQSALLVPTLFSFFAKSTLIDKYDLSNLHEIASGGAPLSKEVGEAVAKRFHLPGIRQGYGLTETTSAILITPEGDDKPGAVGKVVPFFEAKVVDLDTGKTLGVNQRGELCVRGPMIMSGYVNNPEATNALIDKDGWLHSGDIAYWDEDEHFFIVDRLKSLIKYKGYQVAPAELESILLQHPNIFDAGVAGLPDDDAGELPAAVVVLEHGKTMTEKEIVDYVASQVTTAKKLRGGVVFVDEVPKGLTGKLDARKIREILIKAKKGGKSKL

[5] = IC50 of Artemis nuclease activity blockers – biochemical, fluorescence intensity, dose response (AID 720701); format: functional;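 note: Artemis endonuclease enzyme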
cells [6] = conditions: A549
cells [7] = conditions: HEK293
ORF 73 = ORF 73 (Human herpesvirus 8, UniProt O40947); test: KSHV LANA DNA-binding disruption – biochemical, fluorescence polarization, cherry-picked samples, dose response (AID 504725); set-up: species or system Human gammaherpesvirus 8;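 note: fluorescence polarization of a labeled DNA duplex reporting LANA DNA binding; potency is for inhibitors that block LANA binding to the DNA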
Chain of ORF 73 (O40947 whole entry): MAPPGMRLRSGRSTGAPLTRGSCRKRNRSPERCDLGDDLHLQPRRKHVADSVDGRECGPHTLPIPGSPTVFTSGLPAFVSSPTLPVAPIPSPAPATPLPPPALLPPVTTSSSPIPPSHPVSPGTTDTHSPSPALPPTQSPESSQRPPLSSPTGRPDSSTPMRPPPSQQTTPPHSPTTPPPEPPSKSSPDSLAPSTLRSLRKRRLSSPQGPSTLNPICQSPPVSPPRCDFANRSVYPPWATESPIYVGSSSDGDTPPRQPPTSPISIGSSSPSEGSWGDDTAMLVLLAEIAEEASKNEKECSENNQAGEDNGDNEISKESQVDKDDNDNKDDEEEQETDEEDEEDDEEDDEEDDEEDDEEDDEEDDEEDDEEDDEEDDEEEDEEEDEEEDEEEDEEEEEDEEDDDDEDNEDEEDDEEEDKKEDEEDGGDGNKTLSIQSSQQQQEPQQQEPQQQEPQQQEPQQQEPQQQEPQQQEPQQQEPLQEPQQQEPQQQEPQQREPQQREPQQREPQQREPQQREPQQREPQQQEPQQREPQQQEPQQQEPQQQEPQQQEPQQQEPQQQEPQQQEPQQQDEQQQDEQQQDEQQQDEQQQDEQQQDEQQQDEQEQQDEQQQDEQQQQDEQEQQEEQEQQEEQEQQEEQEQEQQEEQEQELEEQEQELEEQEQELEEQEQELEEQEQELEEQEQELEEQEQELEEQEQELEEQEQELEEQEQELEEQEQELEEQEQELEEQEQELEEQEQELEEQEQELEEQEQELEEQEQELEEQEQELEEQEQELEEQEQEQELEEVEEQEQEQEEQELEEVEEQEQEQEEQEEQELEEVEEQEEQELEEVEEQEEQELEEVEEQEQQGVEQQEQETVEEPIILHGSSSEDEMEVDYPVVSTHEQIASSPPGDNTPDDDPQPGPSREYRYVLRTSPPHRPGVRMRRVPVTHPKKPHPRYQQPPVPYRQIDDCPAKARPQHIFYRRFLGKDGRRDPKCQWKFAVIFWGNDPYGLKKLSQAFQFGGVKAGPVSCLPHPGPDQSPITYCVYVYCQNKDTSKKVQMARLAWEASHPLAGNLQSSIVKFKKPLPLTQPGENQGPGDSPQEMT

[8] = target: T4, Microphthalmia-associated transcription factor (Homo sapiens, UniProt O75030); test: reducers of TRPM1 reporter luminescence, concentration series – cell-based, SK-MEL-5, cherry-picked, set 3, MITF inhibitor project, dose response (AID 493073); format: functional;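 note: SK-MEL-5 melanoma cells with luciferase driven by the MITF target TRPM1 promoter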
T4 sequence (O75030 whole entry): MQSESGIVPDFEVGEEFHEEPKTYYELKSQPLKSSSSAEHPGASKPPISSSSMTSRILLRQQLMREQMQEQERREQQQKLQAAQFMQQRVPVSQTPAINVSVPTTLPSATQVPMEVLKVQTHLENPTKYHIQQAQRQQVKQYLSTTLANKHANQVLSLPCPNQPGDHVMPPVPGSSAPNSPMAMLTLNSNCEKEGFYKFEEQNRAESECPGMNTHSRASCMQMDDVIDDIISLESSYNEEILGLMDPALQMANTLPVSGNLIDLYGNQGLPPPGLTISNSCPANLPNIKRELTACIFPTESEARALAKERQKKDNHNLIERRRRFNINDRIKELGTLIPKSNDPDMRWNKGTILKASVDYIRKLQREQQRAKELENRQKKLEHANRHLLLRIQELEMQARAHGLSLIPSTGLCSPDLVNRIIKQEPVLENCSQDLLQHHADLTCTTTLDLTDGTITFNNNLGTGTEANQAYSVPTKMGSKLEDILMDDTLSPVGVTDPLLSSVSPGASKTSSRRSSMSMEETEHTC

Salmon testes DNA = test: acridine orange-DNA binding displacement – biochemical, fluorescence polarization, cherry-picked samples, set 2, artefact control for KSHV LANA DNA-binding inhibitor project, dose response (AID 504727); set-up: species or system Salmonidae
[9] = viability loss in HepG2 liver cells – cell-based, ATP luminescence, cherry-pick, set 6, cytotoxicity control, dose response (AID 1053125); format: functional
[10] = target: T5, RNA-binding protein pos-1 (Caenorhabditis elegans, UniProt G5EF15); test: disruptors of C. elegans POS-1 RNA interaction – biochemical, fluorescence polarization, dose response (AID 1964);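 note: purified POS-1 fused to maltose binding protein made in E. coli; potency of compounds blocking POS-1 binding to fluorescent RNA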
T5 sequence (G5EF15 whole entry): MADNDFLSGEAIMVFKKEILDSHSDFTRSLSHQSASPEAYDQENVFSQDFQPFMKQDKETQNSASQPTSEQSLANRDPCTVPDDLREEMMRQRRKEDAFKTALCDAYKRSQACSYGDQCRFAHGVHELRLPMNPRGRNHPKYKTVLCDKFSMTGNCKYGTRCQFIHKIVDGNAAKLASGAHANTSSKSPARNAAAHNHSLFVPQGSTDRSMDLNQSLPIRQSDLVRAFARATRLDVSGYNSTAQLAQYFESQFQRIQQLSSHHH

[11] = target: Voltage-dependent T-type calcium channel subunit alpha-1H (Homo sapiens, UniProt O95180); test: human CACNA1H calcium influx blockade – cell-based, synthetic library set 1, calcium flux (AID 493022); format: functional
Caspase-3 = target: T6, Caspase-3 (Homo sapiens, UniProt P42574); test: activation of caspase-3 zymogen – biochemical, absorbance, dose response (AID 489014)
T6 sequence (P42574 whole entry): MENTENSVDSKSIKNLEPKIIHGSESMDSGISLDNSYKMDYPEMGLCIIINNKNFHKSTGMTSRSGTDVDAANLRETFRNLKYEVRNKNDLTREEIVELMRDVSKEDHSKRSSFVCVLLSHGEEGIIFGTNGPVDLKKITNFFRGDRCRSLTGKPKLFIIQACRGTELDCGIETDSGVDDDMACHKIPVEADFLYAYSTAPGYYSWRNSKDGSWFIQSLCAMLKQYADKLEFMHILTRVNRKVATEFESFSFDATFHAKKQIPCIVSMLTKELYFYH

Caspase-7 = Caspase-7 (Homo sapiens, UniProt P55210); test: activation of caspase-7 zymogen – biochemical, absorbance, counter-screen for procaspase-3 activator project, dose response (AID 489013)
Chain of Caspase-7 (P55210 24-198 limits assumed): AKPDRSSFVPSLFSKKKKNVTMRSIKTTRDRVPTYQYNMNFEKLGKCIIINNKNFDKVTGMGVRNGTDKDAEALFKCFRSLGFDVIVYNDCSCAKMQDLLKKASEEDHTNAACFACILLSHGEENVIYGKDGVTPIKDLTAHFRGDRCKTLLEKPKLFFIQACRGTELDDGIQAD
Chain of Caspase-7 (P55210 207-303 limits assumed): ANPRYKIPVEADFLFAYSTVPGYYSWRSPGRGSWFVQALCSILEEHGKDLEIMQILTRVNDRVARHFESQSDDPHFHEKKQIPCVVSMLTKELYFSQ

[12] = target: G-protein coupled receptor 55 (Homo sapiens, UniProt Q9Y2T6); test: SAR Analysis of Selective Antagonists of GPR55 using an Image-Based Assay - Set 3. [Related pubchem assays (depositor defined):AID2058, AID2079]; format: functional
Chain of G-protein coupled receptor 55 (Q9Y2T6 whole entry): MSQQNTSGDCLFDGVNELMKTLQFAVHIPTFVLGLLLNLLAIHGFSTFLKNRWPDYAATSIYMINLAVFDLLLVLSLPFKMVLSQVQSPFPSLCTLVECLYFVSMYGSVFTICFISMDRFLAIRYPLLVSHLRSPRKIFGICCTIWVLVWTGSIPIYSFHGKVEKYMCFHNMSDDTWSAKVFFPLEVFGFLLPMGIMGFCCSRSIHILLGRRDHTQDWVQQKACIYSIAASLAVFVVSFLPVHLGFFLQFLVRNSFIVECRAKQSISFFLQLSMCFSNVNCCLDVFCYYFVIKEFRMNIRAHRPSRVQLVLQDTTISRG

[13] = target: G-protein coupled receptor 35 (Homo sapiens, UniProt Q9HC97); test: SAR analysis of Antagonists of the GPR35 Receptor using an Image-Based Assay - Set 5. [Related pubchem assays (depositor defined):AID2058, AID2079]; format: functional
Chain of G-protein coupled receptor 35 (Q9HC97 whole entry): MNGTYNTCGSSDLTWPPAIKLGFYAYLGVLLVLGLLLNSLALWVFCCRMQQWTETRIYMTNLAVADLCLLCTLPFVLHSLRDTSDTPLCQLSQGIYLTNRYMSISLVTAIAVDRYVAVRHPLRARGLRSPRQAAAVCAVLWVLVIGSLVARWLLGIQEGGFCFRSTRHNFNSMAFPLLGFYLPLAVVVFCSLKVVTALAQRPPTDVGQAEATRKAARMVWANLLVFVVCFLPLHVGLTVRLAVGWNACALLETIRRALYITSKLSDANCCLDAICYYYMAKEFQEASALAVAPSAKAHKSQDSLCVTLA

[14] = target: DNA dC->dU-editing enzyme APOBEC-3G (Homo sapiens, UniProt Q9HC16); test: Dose Response confirmation of small molecule APOBEC3G DNA Deaminase Inhibitors via a fluorescence-based single-stranded DNA deaminase assay. [Related pubchem assays (depositor defined):AID493012, AID493028]; format: functional
Chain of DNA dC->dU-editing enzyme APOBEC-3G (Q9HC16 whole entry): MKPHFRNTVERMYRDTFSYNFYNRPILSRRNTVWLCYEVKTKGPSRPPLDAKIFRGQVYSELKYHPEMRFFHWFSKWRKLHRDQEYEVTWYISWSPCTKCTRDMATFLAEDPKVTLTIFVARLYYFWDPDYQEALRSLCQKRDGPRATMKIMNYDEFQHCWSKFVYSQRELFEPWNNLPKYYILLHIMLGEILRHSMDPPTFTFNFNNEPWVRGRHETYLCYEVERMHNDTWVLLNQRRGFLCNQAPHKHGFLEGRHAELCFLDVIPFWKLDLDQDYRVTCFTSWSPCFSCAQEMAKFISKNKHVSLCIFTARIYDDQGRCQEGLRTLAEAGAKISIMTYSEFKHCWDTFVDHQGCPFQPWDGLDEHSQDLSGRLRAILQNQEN

[15] = target: DNA dC->dU-editing enzyme APOBEC-3A (Homo sapiens, UniProt P31941); test: A3A deaminase inhibition for selectivity – biochemical, dose response (AID 504722); format: functional
Chain of DNA dC->dU-editing enzyme APOBEC-3A (P31941 whole entry): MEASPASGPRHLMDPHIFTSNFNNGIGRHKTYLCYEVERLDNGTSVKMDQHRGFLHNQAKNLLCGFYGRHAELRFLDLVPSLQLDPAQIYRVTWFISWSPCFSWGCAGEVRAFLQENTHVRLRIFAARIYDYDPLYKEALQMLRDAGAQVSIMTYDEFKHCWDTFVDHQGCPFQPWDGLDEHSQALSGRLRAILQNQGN

[16] = target: T7, Rac GTPase-activating protein 1 (Homo sapiens, UniProt Q9H0H5); test: blockers of MgcRacGAP-driven Rac1 GTP hydrolysis – biochemical, ADP Hunter fluorescence, primary and confirmatory, confirmation (AID 624330); format: functional
T7 sequence (Q9H0H5 whole entry): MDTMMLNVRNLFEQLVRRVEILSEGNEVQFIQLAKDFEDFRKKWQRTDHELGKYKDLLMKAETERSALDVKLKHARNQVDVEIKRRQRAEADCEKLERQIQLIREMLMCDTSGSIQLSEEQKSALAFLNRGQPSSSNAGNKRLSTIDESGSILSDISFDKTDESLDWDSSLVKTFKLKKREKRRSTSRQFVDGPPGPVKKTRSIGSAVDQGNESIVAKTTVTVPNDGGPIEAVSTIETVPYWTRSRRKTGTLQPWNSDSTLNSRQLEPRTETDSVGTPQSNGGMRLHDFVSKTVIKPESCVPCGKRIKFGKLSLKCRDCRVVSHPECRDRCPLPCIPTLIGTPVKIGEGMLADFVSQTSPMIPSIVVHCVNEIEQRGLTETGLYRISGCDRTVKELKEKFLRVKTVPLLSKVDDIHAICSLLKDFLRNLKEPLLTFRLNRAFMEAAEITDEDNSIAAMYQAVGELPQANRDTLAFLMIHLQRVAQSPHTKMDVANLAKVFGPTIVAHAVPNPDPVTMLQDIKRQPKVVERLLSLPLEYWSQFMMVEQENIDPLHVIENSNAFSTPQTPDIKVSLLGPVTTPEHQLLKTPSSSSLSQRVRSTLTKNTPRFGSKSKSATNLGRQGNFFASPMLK

N#CC1=C(N)C(C#N)(C#N)C(c2cccnc2)C2CC(c3ccccc3)CC=C12 (stereo not drawn)
EC50 [1]: 4.73 µM (active) | EC50 [2]: > 195 µM (not active) | AC50 (HEK293): 10.5 µM (active)

c1ccc(-c2cn3nc4c(nc3n2)CCCC4)cc1
EC50 [3]: 10.6 µM (active) | EC50 (HT-1080): > 50 µM (not active) | AC50 (HeLa): 31.1 µM (active) | EC50 [4]: 0.29 µM (active) | IC50 [5]: > 20 µM (inactive) | AC50 (cells [6]): 15.8 µM (active) | AC50 (cells [7]): 12.7 µM (active) | AC50 (ORF 73): 94.3 µM (active) | AC50 [8]: 5.89 µM (active) | AC50 (Salmon testes DNA): 169 µM (active) | AC50 [9]: > 52 µM (inactive) | EC50 [10]: 14.3 µM (active)

O=C(COc1ccc(Cl)cc1)Nc1nnc(-c2ccc3ccccc3c2)o1
EC50 [11]: 10 µM (active)

CC(=O)NCCc1nc2ccccc2n1Cc1ccc(C)cc1
EC50 (Caspase-3): > 85.2 µM (inactive) | EC50 (Caspase-7): > 85.2 µM (inactive)

COC(=O)c1cnn(-c2ccccc2)c1/C=N/NC(=S)NC(C)(C)C
IC50 [12]: 6.58 µM (active) | IC50 [13]: 0.307 µM (active)

O=[N+]([O-])c1cccc(/C=N/n2c(S)nnc2-c2cccnc2)c1
IC50 [14]: 2.33 µM (active) | IC50 [15]: > 100 µM (inactive) | IC50 [16]: 31.9 µM (active)

— ChEMBL document CHEMBL1201862, “PubChem BioAssay data set” (2004)
